Data: patent EP0384594A1, “Anti-inflammatory aryl derivatives” (THE WELLCOME FOUNDATION LIMITED, priority 1989, dated 1990)
Where two headings read alike, the source gives them in different places.

Key:
[1] = system: Male New Zealand White rabbits; experiment: Combination effects with an NSAID: antigen (ovalbumin)-induced arthritis of the knee joint in rabbits; format: in vivo; conditions: for proteoglycan loss from the cartilage, result in words / PROTEOGLYCAN LOSS: 14 days after antigen challenge; for mean leukocyte infiltrate in the synovial fluid, result in words / LEUKOCYTES (CELL NUMBER x 10⁶): 14 days after challenge; for PROTEOGLYCAN LOSS: articular cartilage of arthritic joint versus contralateral joint; for JOINT SWELLING: oral x3/24h: compound A 2mg/kg, indomethacin 1mg/kg; for reduced swelling compared to the vehicle-treated controls: from day 3 onwards, maximum reduction; for Lymphocytes / Total cells: histological evaluation of synovial lining; for LEUKOCYTES (CELL NUMBER x 10⁶): synovial fluid of arthritic joint
Experimental: Male New Zealand White rabbits (2.5 - 3kg) were immunised with intradermal injections of 4mg of ovalbumin in 1ml of Freund's complete adjuvant. Animals were reimmunised 14 days later in the same way. Five days after the second immunisation, arthritis was induced in the right knee joint by injecting 1ml of a sterile solution of ovalbumin (5mg/ml) into the joint cavity. Joint diameters were measured (on a randomised blind basis) with calipers at frequent intervals after antigen challenge. Animals were killed after 14 days and the joint space was washed with 1ml of saline and the resultant fluid was taken for total and differential leukocyte counts. Sensitised animals were randomly allocated to groups of 5-8. The compound of Synthetic Example 1, (E)-N-{1-Methyl-3-[3-(4-fluorophenoxy)phenyl]prop-2-en-1-yl}-N-hydroxyurea (compound A), was administered in suspension following 18h ball-milling in 0.25% Celacol as vehicle. The non-steroidal anti-inflammatory indomethacin was dissolved in a small volume of 1M Tris buffer pH8 and then made up to volume with 0.25% Celacol. Control animals received 0.25% Celacol. Each animal received an oral dose (approximately 5ml) of vehicle or drug 3 times every 24h. Doses were administered at 8.0am, 4.0pm and 12 midnight for 16-17 days commencing 1h before antigen challenge on day 0. All doses were given orally by stomach tube. The groups were as follows: 1-7: Controls (5ml 0.25% Celacol x3/24h) 8-14: 1mg/kg indomethacin dissolved in 0.25% Celacol x3/24h 15-21: 2mg/kg compound A suspended in 0.25% Celacol x3/24h 22-28: 2mg/kg compound A suspended in 0.25% Celacol plus 1mg/kg indomethacin dissolved in 0.25% Celacol Synovial lining tissue was removed from the joint, fixed, processed, cut and stained for microscopic examination. Histological scores were derived for the total mass of inflamed synovial lining, lymphocyte infiltration and polymorph content. The slides were read on a randomised blind basis. Articular cartilage was dissected from the ends of the femurs and digested with papain prior to measurement of the concentration of sulphated glycosaminoglycans (GAGs). The proteoglycan content was expressed as µg GAG/mg wet weight of cartilage and compared with values obtained with cartilage from the contralateral control joint.

5-lipoxygenase [2] = experiment: Ex vivo inhibition of 5-lipoxygenase (stimulated LTB4 synthesis in blood after dosing), rabbits; conditions: for inhibition of the stimulated ex vivo synthesis of leukotriene B₄ (LTB₄), result in words: rabbits, preliminary studies
Experimental: After administration of the test compound, the concentration of LTB₄ in the plasma was measured periodically and expressed as a percentage of the mean control value. The procedure used is described in Br. J. Pharmacol. 94, 528 (1988) and may be summarised as follows. Within 2 minutes of collection, duplicate samples (0.5ml) of blood were stimulated with the calcium ionophore A23187 (final concentration 15µg/ml) for 30 minutes at 37 °C. When incubation was complete, the samples were centrifuged (12,000G for 2 minutes) and the cell-free plasma removed. The plasma concentration of LTB₄ was then determined by specific radioimmunoassay. The compounds of Synthetic Examples 1 to 3 all inhibited the stimulated ex vivo synthesis of LTB₄ for several hours after their administration. The compound of Synthetic Example 1, for example, when administered orally to rabbits at a dose of 2mg/kg inhibited LTB₄ synthesis by more than 50% for a period of greater than 16 hours. The same compound when administered orally to rats at a dose of 10mg/kg inhibited LTB₄ synthesis by more than 50% for longer than 10 hours.

5-lipoxygenase [3] = molecular target: T1, 5-lipoxygenase (Homo sapiens, UniProt P09917); experiment: In vitro inhibition of 5-lipoxygenase, ionophore-stimulated whole human blood; format: cell-based; conditions: read-out: IC₅₀ Whole blood
T1 construct: The experiment was repeated using ionophore-stimulated whole human blood; endogenous in cells; host or cells: whole human blood (blood leukocytes)
T1 sequence (P09917 1-674): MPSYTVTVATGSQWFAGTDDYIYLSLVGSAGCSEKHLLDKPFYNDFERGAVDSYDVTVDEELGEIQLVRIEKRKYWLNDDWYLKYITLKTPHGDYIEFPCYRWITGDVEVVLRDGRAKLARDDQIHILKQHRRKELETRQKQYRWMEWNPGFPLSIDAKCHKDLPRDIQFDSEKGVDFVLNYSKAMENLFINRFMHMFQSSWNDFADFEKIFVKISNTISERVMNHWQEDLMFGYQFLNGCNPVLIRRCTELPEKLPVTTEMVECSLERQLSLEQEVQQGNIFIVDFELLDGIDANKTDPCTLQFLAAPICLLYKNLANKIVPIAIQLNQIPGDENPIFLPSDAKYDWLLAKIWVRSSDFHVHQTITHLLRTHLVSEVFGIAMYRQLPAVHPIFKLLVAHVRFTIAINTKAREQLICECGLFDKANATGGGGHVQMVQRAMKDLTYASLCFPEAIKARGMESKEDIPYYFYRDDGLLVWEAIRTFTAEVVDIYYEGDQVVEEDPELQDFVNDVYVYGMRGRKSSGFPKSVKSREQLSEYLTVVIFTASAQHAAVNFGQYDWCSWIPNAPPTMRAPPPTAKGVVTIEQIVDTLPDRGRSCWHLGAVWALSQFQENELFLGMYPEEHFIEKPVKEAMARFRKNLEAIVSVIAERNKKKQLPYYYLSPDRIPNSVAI
Experimental: Blood from normal aspirin-free volunteers was centrifuged to separate leukocytes from red cells and platelets. A solution of the test compound in DMSO (10µl, final concentration in the range 0.01 - 100µM) was added to cell homogenate (470µl) and the mixture incubated at 37 °C for 5 minutes. Solutions of arachidonic acid in methanol (250µM, 10µl, final concentration 5µM) and calcium chloride in water (100mM, 10µl, final concentration 2mM) were then added simultaneously and the mixture incubated at 37 °C for a further 5 minutes. The reaction was stopped by boiling. Radioimmunoassay was conducted for leukotriene B₄.
The experiment was repeated using ionophore-stimulated whole human blood.

5-lipoxygenase [4] = molecular target: T2, 5-lipoxygenase (Rattus norvegicus, UniProt P12527); experiment: Ex vivo inhibition of 5-lipoxygenase (stimulated LTB4 synthesis in blood after dosing), rats; conditions: po, administered orally to rats, ex vivo A23187-stimulated blood, read-out: inhibited LTB₄ synthesis
T2 construct: endogenous in cells; host or cells: whole blood of dosed rats (blood leukocytes)
T2 sequence (P12527 1-673): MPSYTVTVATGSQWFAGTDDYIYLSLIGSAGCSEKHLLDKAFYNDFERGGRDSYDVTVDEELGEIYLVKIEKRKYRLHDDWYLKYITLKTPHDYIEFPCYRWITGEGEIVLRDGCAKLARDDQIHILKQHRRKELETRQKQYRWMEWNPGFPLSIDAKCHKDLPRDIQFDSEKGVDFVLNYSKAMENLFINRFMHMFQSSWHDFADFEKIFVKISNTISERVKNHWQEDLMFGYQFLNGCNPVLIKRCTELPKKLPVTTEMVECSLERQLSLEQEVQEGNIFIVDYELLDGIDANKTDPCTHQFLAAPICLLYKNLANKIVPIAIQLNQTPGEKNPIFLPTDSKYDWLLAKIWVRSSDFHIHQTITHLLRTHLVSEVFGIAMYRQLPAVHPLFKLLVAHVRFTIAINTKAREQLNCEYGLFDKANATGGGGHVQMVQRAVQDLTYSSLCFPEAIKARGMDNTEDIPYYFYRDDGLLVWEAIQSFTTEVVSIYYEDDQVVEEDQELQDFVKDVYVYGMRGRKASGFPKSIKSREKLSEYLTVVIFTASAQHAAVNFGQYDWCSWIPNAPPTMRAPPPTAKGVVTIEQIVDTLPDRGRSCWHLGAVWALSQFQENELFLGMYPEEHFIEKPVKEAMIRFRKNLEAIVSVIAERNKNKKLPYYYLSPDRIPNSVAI
Experimental: After administration of the test compound, the concentration of LTB₄ in the plasma was measured periodically and expressed as a percentage of the mean control value. The procedure used is described in Br. J. Pharmacol. 94, 528 (1988) and may be summarised as follows.
Within 2 minutes of collection, duplicate samples (0.5ml) of blood were stimulated with the calcium ionophore A23187 (final concentration 15µg/ml) for 30 minutes at 37 °C. When incubation was complete, the samples were centrifuged (12,000G for 2 minutes) and the cell-free plasma removed. The plasma concentration of LTB₄ was then determined by specific radioimmunoassay.
The compounds of Synthetic Examples 1 to 3 all inhibited the stimulated ex vivo synthesis of LTB₄ for several hours after their administration. The compound of Synthetic Example 1, for example, when administered orally to rabbits at a dose of 2mg/kg inhibited LTB₄ synthesis by more than 50% for a period of greater than 16 hours. The same compound when administered orally to rats at a dose of 10mg/kg inhibited LTB₄ synthesis by more than 50% for longer than 10 hours.

[5] = Anti-oxidant activity: peroxyl radical scavenging, inhibition of peroxidation of linoleic acid
Experimental: As a measure of anti-oxidant activity, the peroxyl radical scavenging abilities of the compounds of the invention were determined by testing each compound's ability to inhibit the peroxidation of linoleic acid using the method described in Biochem. Pharm. 38, 1465 (1989).

mice = format: in vivo
Experimental: The compound of Synthetic Example 1 was administered to mice per orally at doses of up to 300mg/kg and intraperitoneally at doses of up to 100mg/kg.

[6] = duration of arthritis 14 (days)

IC50 (5-lipoxygenase [3]) | SMILES | proteoglycan loss from the cartilage, result in words [1] | mean leukocyte infiltrate in the synovial fluid, result in words [1] | PROTEOGLYCAN LOSS [1] | JOINT SWELLING ([1]; duration of arthritis 1 (day)) | JOINT SWELLING ([1]; duration of arthritis 2 (days)) | JOINT SWELLING ([1]; duration of arthritis 3 (days)) | JOINT SWELLING ([1]; duration of arthritis 8 (days)) | JOINT SWELLING [1, 6] | reduced swelling compared to the vehicle-treated controls [1] | Lymphocytes [1] | Total cells [1] | LEUKOCYTES (CELL NUMBER x 10⁶) [1] | inhibition of the stimulated ex vivo synthesis of leukotriene B₄ (LTB₄), result in words (5-lipoxygenase [2]) | period for which LTB₄ synthesis was inhibited by more than 50% (5-lipoxygenase [2]; administered orally to rabbits, 2mg/kg) | inhibited LTB₄ synthesis (5-lipoxygenase [2]; administered orally to rabbits, 2mg/kg, ex vivo A23187-stimulated blood) | inhibition at 10 mg/kg (5-lipoxygenase [4]) | apparent rate constant (kAH) for scavenging peroxyl radicals [5] | deaths or serious deleterious effects (mice; intraperitoneally, doses of up to 100mg/kg) | deaths or serious deleterious effects (mice; per orally, doses of up to 300mg/kg)
 | COc1ccc2c(c1)c(CC(=O)O)c(C)n2C(=O)c1ccc(Cl)cc1 [Indomethacin, indomethacin, reference compound] | reduced proteoglycan loss | slightly reduced | 38% | 4.3 MM | 4.5 MM | 3.5 MM | 2.6 MM | 2.0 MM | up to 53% | 51 | 365 | 7.3 x 10⁶ |  |  |  |  |  |  | 
0.08 µM | C[C@@H](/C=C/c1cccc(Oc2ccc(F)cc2)c1)N(O)C(N)=O [Synthetic Example 3, (E)-N-{3-[3-(4-fluorophenoxy)phenyl]-1(S)-methylprop-2-en-1-yl}-N-hydroxyurea] |  |  |  |  |  |  |  |  |  |  |  |  | effectively inhibited |  |  |  |  |  | 
0.08 µM | C[C@H](/C=C/c1cccc(Oc2ccc(F)cc2)c1)N(O)C(N)=O [Synthetic Example 2, (E)-N-{3-[3-(4-fluorophenoxy)phenyl]-1(R)-methylprop-2-en-1-yl}-N-hydroxyurea] |  |  |  |  |  |  |  |  |  |  |  |  | effectively inhibited |  |  |  |  |  | 

SMILES | IC50 (5-lipoxygenase [3]) | proteoglycan loss from the cartilage, result in words [1] | mean leukocyte infiltrate in the synovial fluid, result in words [1] | PROTEOGLYCAN LOSS [1] | JOINT SWELLING ([1]; duration of arthritis 1 (day)) | JOINT SWELLING ([1]; duration of arthritis 2 (days)) | JOINT SWELLING ([1]; duration of arthritis 3 (days)) | JOINT SWELLING ([1]; duration of arthritis 8 (days)) | JOINT SWELLING [1, 6] | reduced swelling compared to the vehicle-treated controls [1] | Lymphocytes [1] | Total cells [1] | LEUKOCYTES (CELL NUMBER x 10⁶) [1] | inhibition of the stimulated ex vivo synthesis of leukotriene B₄ (LTB₄), result in words (5-lipoxygenase [2]) | period for which LTB₄ synthesis was inhibited by more than 50% (5-lipoxygenase [2]; administered orally to rabbits, 2mg/kg) | inhibited LTB₄ synthesis (5-lipoxygenase [2]; administered orally to rabbits, 2mg/kg, ex vivo A23187-stimulated blood) | inhibition at 10 mg/kg (5-lipoxygenase [4]) | apparent rate constant (kAH) for scavenging peroxyl radicals [5] | deaths or serious deleterious effects (mice; intraperitoneally, doses of up to 100mg/kg) | deaths or serious deleterious effects (mice; per orally, doses of up to 300mg/kg)
CC(/C=C/c1cccc(Oc2ccc(F)cc2)c1)N(O)C(N)=O (racemic) [Synthetic Example 1, (E)-N-{3-[3-(4-fluorophenoxy)phenyl]-1(R,S)-methylprop-2-en-1-yl}-N-hydroxyurea] | 0.15 µM | reduced proteoglycan loss | slightly reduced | 34% | 4.6 MM | 5.2 MM | 4.6 MM | 3.5 MM | 3.2 MM | up to 26% | 59 | 367 | 6.1 x 10⁶ | effectively inhibited | greater than 16 hours | more than 50% | > 50% | 0.408 | No deaths or serious deleterious effects | No deaths or serious deleterious effects
